Where two headings read alike, the source gives them in different places.
Tests used:
[1] = Clinical plasma pharmacokinetic parameters of TKIs; type: in vivo, human; settings: for Cmax,u: calculated unbound plasma concentration (Cmax x fu) from cited clinical parameters; for Ctrough,u: calculated unbound trough plasma concentration from cited clinical parameters
Source text: Table 2 Pharmacokinetic parameters and obtained IC50, Ki, and Kp,uu values of TKIs. | column: Cmax,u (μM) Ctrough,u (μM)

[2] = set-up: method as in earlier work; settings: unbound fraction in plasma; 34-43 (per drug); cited from earlier work
[3] = set-up: method as in earlier work; settings: 34-43 (per drug), cited from earlier work; for t1/2: clinical half-life; for Cmax: maximum plasma concentration, clinical dosing: crizotinib 250 mg twice a day, gefitinib 250 mg, imatinib 400 mg, pazopanib 800 mg, sorafenib 400 mg, sunitinib 50 mg once a day; for Ctrough: trough plasma concentration, clinical dosing as in table footnote
OCT2 and MATE1 = settings: for Prediction of SCr increase, Cmax,u: based on Cmax,u (Kp,uu assumed 1), mean ± S.D. (n = 11 subjects' parameters from ref 10); for Prediction of SCr increase, Cmax,u · Kp,uu: based on Cmax,u with Kp,uu incorporated; for Prediction of SCr increase, Cmax,u · Kp,uu / Prediction of SCr increase, Ctrough,u / Prediction of SCr increase, Ctrough,u · Kp,uu: mean ± S.D. (n = 11); for Prediction of SCr increase, Ctrough,u: based on Ctrough,u (Kp,uu assumed 1); for Prediction of SCr increase, Ctrough,u · Kp,uu: based on Ctrough,u with Kp,uu incorporated
Source text: In this model, the intrinsic clearances of OCT2 and MATE1 were assumed to be equal. When MATE1 inhibition was predicted from the Cmax,u of drugs, Kp,uu was assumed to be 1.

human MATE1 = biological target: T1, human MATE1 (Homo sapiens, UniProt Q96FL8); experiment: Inhibition of [14C]creatinine uptake by HEK293/MATE1 cells; type: cell-based
T1 construct: expressed in transfected cells; host or cells: HEK293
T1 sequence (Q96FL8 1-570): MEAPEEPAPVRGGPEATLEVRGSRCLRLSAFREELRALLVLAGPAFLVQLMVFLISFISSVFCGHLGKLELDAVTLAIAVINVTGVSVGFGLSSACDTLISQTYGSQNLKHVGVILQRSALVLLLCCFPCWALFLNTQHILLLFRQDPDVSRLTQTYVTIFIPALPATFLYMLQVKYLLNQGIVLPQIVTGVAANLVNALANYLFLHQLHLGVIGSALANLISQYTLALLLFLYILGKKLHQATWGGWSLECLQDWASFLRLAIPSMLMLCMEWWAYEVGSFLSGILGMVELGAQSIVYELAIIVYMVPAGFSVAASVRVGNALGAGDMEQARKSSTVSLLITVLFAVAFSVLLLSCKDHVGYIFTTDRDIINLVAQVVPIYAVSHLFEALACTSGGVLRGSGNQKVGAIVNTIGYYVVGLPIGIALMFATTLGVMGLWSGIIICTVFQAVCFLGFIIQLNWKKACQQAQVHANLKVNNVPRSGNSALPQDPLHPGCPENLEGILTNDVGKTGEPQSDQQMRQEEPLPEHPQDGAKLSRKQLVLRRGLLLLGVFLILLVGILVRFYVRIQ
Description: (§1) Cells were cultured in Dulbecco’s modified Eagle’s medium (DMEM) supplemented with 10% fetal bovine serum, 100 units/ml penicillin, 100 μg/ml streptomycin, 1 mM pyruvic acid, and 100 μg/ml zeocin for HEK293/OCT2 cells or 400 μg/mL G418 for HEK293/MATE1 and MDCKII/MATE1 cells at 37 °C in a humidified atmosphere of 5% CO2 in air.
The cells were incubated at 37 °C.
Uptake by transporter-expressing cells was expressed as the cell-to-medium (C/M) ratio (μL/mg protein), obtained by dividing the uptake amount by the concentration of substrate in the TM. MATE1- or OCT2-mediated uptake was obtained after subtraction of the uptake by mock cells.
Kinetic parameters for uptake were obtained using the Michaelis-Menten Eq. (2);2 v=Vmax×[C]/Km+[C] where v, Vmax, Km, and [C] are initial uptake rate, maximal uptake rate, Michaelis constant, and substrate concentration, respectively.

[4] = Tissue accumulation (Kp,uu) of TKIs in rat kidney slices; type: in vitro ADME; settings: male, Wistar, rat kidney slices (0.3 mm thick), pH 7.4, TKI 1 μM, 120 min, C/M ratio 37 °C / 4 °C, mean ± S.E.M. (n = 3 or 4)
Description: Male Wistar rats (180 ± 10 g body weight) were purchased from Japan SLC (Hamamatsu, Japan). Rats were housed three per cage with free access to commercial chow and tap water, and were maintained on a 12 h dark/light cycle in an air-controlled room (temperature, 24.0 ± 1 °C; humidity, 55 ± 5%).
Uptake study by rat kidney slices was carried out as described previously, with slight modifications. Whole kidneys of male rats were sliced (0.3 mm thick) with a microslicer (Zero 1; Dosaka EM, Kyoto, Japan). […] Three or four slices per rat, each weighing 5 to 20 mg, were randomly selected and pre-incubated in a 12-well plate with 2.0 ml/well of oxygenated transport buffer at 37 °C for 5 min. After pre-incubation, the kidney slices were placed in transport buffer containing TKIs to initiate the uptake reaction. After uptake at 37 °C for an appropriate time, each slice was rapidly removed from the transport buffer, washed twice in ice-cold transport buffer, blotted on filter paper and weighed. Non-specific adsorption of each substrate was estimated as the absorption on a slice incubated at 4 °C for 1 min. The tissue accumulation of TKIs was measured by liquid chromatography-tandem mass spectrometry (LC-MS/MS) as described below.
The unbound renal proximal tubule epithelial cell-to-medium concentration ratio (Kp,uu) based on the steady-state uptake at 37 °C and 4 °C was defined according to Eq. (4);4 Kp,uu=C/Mratioss,37 °C/C/Mratioss,4 °C
Kp,uu was calculated by dividing C/Mratioss,37 °C by the mean value of C/Mratioss,4 °C .

human OCT2 = biological target: T2, human OCT2 (Homo sapiens, UniProt O15244); experiment: Inhibition of [14C]creatinine uptake by HEK293/OCT2 cells; type: cell-based; settings: for IC50: 37 °C, pre/co-incubation, unit inferred, read-out: IC50 or Ki, OCT2
T2 construct: expressed in transfected cells; host or cells: HEK293
T2 sequence (O15244 1-555): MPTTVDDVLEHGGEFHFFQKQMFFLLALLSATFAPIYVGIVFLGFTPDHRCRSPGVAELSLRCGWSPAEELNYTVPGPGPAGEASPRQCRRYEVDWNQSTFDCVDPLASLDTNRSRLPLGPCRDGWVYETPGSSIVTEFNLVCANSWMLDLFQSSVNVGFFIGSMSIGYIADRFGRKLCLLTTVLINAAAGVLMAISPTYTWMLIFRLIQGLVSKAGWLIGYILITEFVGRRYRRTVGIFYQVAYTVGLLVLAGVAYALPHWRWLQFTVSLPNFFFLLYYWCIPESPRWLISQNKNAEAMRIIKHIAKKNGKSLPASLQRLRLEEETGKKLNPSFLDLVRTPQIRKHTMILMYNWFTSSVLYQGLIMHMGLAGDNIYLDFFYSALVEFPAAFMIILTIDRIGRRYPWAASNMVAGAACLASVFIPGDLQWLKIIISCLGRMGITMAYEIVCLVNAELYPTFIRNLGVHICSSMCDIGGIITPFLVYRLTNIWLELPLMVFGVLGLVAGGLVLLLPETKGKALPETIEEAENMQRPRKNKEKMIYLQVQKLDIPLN
Description: as §1
The cells were incubated at 37 °C.
Experiments were conducted at least twice, and the results are shown as representative values in individual experiments. Uptake by transporter-expressing cells was expressed as the cell-to-medium (C/M) ratio (μL/mg protein), obtained by dividing the uptake amount by the concentration of substrate in the TM. MATE1- or OCT2-mediated uptake was obtained after subtraction of the uptake by mock cells.

MATE2K = biological target: T3, MATE2K (Homo sapiens, UniProt Q86VL8); experiment: Uptake of MPP+ by HEK293/MATE2K and mock cells; type: cell-based
T3 construct: expressed in transfected cells; host or cells: HEK293
T3 sequence (Q86VL8 1-566 isoform Q86VL8-3): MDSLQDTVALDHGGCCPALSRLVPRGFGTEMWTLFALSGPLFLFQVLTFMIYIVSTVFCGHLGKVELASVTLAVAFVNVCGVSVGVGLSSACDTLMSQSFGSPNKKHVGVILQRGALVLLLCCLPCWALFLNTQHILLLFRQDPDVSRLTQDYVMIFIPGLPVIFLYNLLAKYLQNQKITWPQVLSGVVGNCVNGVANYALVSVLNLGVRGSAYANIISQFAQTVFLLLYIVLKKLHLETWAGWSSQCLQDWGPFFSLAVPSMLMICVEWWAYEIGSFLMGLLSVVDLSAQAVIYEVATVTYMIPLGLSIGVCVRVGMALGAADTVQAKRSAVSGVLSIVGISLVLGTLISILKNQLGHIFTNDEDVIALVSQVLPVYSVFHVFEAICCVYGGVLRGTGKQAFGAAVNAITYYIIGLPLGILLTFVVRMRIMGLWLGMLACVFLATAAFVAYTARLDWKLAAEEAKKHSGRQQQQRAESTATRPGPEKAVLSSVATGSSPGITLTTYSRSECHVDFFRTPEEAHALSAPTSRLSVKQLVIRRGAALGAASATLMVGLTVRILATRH
Description: The uptake experiment was conducted as described previously. HEK293 cells were plated at a density of 1.7 × 10^5 cells/cm^2 on 24-well plates and cultured for two days before uptake assay. The cells were pre-incubated with 0.5 ml of transport medium (TM) (125 mM NaCl, 4.8 mM KCl, 1.2 mM KH2PO4, 1.2 mM CaCl2, 1.2 mM MgSO4, 5.6 mM D-glucose, and 25 mM HEPES, pH 7.4) for an appropriate time at 37 °C. Cells for MATE1 assays were pre-incubated in TM containing 30 mM NH4Cl for 20 min to establish an outwardly directed H^+ gradient; this was done concomitantly with the pre-incubation with TKIs. […] Uptake was terminated by washing the cells three times with 0.5 ml of ice-cold TM, and the cells were solubilized in 0.25 ml of 0.01% (v/v) Triton-X. Radioactivity was measured with a liquid scintillation counter (Hitachi Aloka Medical, Ltd., Tokyo, Japan). […] Uptake was terminated by washing the cells three times with ice-cold TM, and intracellular [^14C]creatinine concentration was determined by the method described above.
Experiments were conducted at least twice, and the results are shown as representative values in individual experiments. Uptake by transporter-expressing cells was expressed as the cell-to-medium (C/M) ratio (μL/mg protein), obtained by dividing the uptake amount by the concentration of substrate in the TM. […]

[5] = patients treated with crizotinib, n = 38, 95% CI 21.3–[…]; cited from earlier work
creatinine transporters = settings: cited from earlier work

Structure (SMILES) | Cmax,u [1] | fu [2] | t1/2 [3] | Cmax [3] | Ctrough [3] | Prediction of SCr increase, Cmax,u (OCT2 and MATE1) | Prediction of SCr increase, Cmax,u · Kp,uu (OCT2 and MATE1) | Prediction of SCr increase, Ctrough,u (OCT2 and MATE1) | Prediction of SCr increase, Ctrough,u · Kp,uu (OCT2 and MATE1) | Kp uu at 2 h, 1 μM [4] | also measured
Cc1ccc(Nc2nccc(N(C)c3ccc4c(C)n(C)nc4c3)n2)cc1S(N)(=O)=O [Pazopanib, pazopanib] | 10.1 nM | 0.000106 | 30.9 h | 95100 nM | 50600 nM | 1.16 ± 0.87% | 1.86 ± 0.95% | 0.837 ± 0.842% | 1.22 ± 0.87% | 2.05 ± 0.14 | IC50 (human MATE1; [14C]creatinine 2.6 μM, 2 min, 37 °C, pre/co-incubation, unit inferred, read-out: IC50 or Ki, MATE1): 0.47 ± 0.032 µM; Ctrough/IC50 or Ki, MATE1 (human MATE1; ratio of trough (unbound) concentration to IC50 or Ki for MATE1): 0.0114; Inhibition of [14C]creatinine uptake by HEK293/OCT2 cells (in words) (human OCT2; pazopanib 1, 3, 10, 30 μM, [14C]creatinine 2.6 μM, 1 min): not by pazopanib; Ctrough/IC50 or Ki, OCT2 (human OCT2; ratio of trough (unbound) concentration to IC50 or Ki for OCT2): 0.0000386
COc1cc2ncnc(Nc3ccc(F)c(Cl)c3)c2cc1OCCCN1CCOCC1 [Gefitinib, gefitinib] | 93.6 nM | 0.09 | 23.8 h | 1040 nM |  | 2.47 ± 1.05% |  |  |  | 2.22 ± 0.05 | 
CNC(=O)c1cc(Oc2ccc(NC(=O)Nc3ccc(Cl)c(C(F)(F)F)c3)cc2)ccn1 [Sorafenib, sorafenib] |  | 0.0029 | 28.1 h | 14600 nM |  | 1.47 ± 0.90% | 3.10 ± 1.17% |  |  | 2.76 ± 0.27 | IC50 (human OCT2; [14C]creatinine 2.6 μM, 1 min): 40.8 ± 9.3 µM
CC(=O)[O-].C[n+]1ccc(-c2ccccc2)cc1 [MPP^+, N-methyl-4-phenylpyridinium acetate] |  |  |  |  |  |  |  |  |  |  | Uptake of MPP+ by HEK293/MATE2K cells (MATE2K; HEK293/MATE2K cells): 19.1 μL/mg/1 min; Uptake of MPP+ by mock cells (MATE2K; mock cells): 5.76 μL/mg/1 min
Cc1ccc(NC(=O)c2ccc(CN3CCN(C)CC3)cc2)cc1Nc1nccc(-c2cccnc2)n1 [Imatinib, imatinib] |  |  |  |  |  |  |  |  |  | 2.39 ± 0.29 | 
C[C@@H](Oc1cc(-c2cnn(C3CCNCC3)c2)cnc1N)c1c(Cl)ccc(F)c1Cl [Crizotinib, crizotinib] | 84.8 nM | 0.093 |  |  | 708 nM | 14.5 ± 4.6% | 25.3 ± 8.8% | 11.7 ± 3.6% | 21.1 ± 7.1% |  | Ctrough,u [1]: 65.8 nM; Prediction of SCr increase, Cmax,u (OCT2 and MATE1; listed as crizotinib): 14.5%; Prediction of SCr increase, Cmax,u · Kp,uu (OCT2 and MATE1; listed as crizotinib): 25.3%; Predicted increase of SCr in the clinical context (OCT2 and MATE1; summary statement of the prediction): more than 10%; Clinically reported eGFR reduction [5]: 23.9%
COc1c(N2CC[C@@H](C3(N)CC3)C2)ccc2c(=O)c(C(=O)O)cn([C@@H]3C[C@@H]3F)c12 [DX-619] |  |  |  |  |  |  |  |  |  |  | Reduction of creatinine clearance (creatinine transporters): up to 51.4%
CCN(CC)CCNC(=O)c1c(C)[nH]c(/C=C2\C(=O)Nc3ccc(F)cc32)c1C [Sunitinib, sunitinib] | 6.8 nM |  | 40 to 60 h | 136 nM | 82.9 nM | 1.65 ± 0.92% | 2.73 ± 1.10% | 1.19 ± 0.87% | 1.86 ± 0.95% | 3.93 ± 0.15 | Ctrough,u [1]: 4.14 nM; IC50 (human OCT2; [14C]creatinine 2.6 μM, 1 min): 0.266 ± 0.03 µM
